Experiment [1] has as its target T1, Baculoviral IAP repeat-containing protein 2/Estrogen receptor (Homo sapiens) (UniProt P03372+Q13490). Put plainly: Binding affinity to cIAP1/ERalpha in human MCF7 cells assessed as proteasomal degradation of ERalpha at 10 to 30 uM after 6 hrs by Western blot analysis. It is filed as cell-based. Background: In western blotting, separated proteins are transferred to a membrane and probed.

In experiment [2] the target is T1, Baculoviral IAP repeat-containing protein 2/Estrogen receptor (Homo sapiens). The experiment is described as follows: Binding affinity to cIAP1/ERalpha in human MCF7 cells assessed as proteasomal degradation of ERalpha after 6 hrs by Western blot analysis in presence of proteasome inhibitor MG132. It is filed as cell-based.

Each structure is given as a SMILES string. Activity calls are given as the source filed them. The calls are words filed in the database; no cut-off is given here.

Turning to `CCC(=C(c1ccc(O)cc1)c1ccc(OCCN(C)C(=O)CCNC(=O)[C@H](CC(C)C)NC(=O)[C@@H](O)[C@H](N)Cc2ccccc2)cc1)c1ccccc1`, the result in experiment [1] was Active. In addition, the outcome in experiment [2] was inactive.

As for `CCC(=C(c1ccc(O)cc1)c1ccc(OCCN(C)C(=O)CCCCCCNC(=O)[C@H](CC(C)C)NC(=O)[C@@H](O)[C@H](N)Cc2ccccc2)cc1)c1ccccc1`, in experiment [1], the result was Active. Moreover, the result in experiment [2] was inactive.

Regarding `CCC(=C(c1ccc(O)cc1)c1ccc(OCCN(C)C(=O)CCCCNC(=O)[C@H](CC(C)C)NC(=O)[C@@H](O)[C@H](N)Cc2ccccc2)cc1)c1ccccc1`, the result in experiment [1] was Active. In addition, the outcome in experiment [2] was inactive.

These data come from ChEMBL document CHEMBL1949671, “Design and synthesis of estrogen receptor degradation inducer based on a protein knockdown strategy” (Bioorg Med Chem Lett, 2012).
